Data from patent US20020127186A1, “Use of electrolytes (lons in solution) to suppress charging of inhalation aerosols” (priority 2000, published 2002).

Tests used:
[1] = Net aerosol electric charge of AERx aerosols, measured with a Faraday cup; assay type: physicochemical
Protocol: The AERx™ system (as described and disclosed in U.S. Pat. Nos. 5,544,646 and 6,123,068) produces aerosols by extruding the liquid contents of a single dose blister packet (here 45 uL) through an array of micro-drilled holes. The jets formed during the extrusion process are entrained by the patient inhalation air flow. (Schuster J et al., In Drug Delivery to the Lungs VIII, pp14-17, 1997; Schuster J et al., In Respiratory Drug Delivery VI, pp. 83-90, 1998).
For the measurements of electric charge, the air flow was simulated with pressurized house air. A Faraday cup was inserted in the flow path of the aerosol a few centimeters downstream from the point of generation. It comprised a perforated aluminum cartridge filled with a paper filter, which was inserted into and insulated from a grounded metal enclosure, used as a shield from external electromagnetic noise. A coaxial wire connected to the aluminum cartridge was passed through the metal enclosure and connected to a current-voltage converter of the op-amp design (ammeter). The voltage output from the ammeter was acquired as a function of time by a computer together with other information about the extrusion process, such as the position of the piston that pressurizes the blister pack during an extrusion.
The formulations tested in EXAMPLES 1, 2 and 3 were de-ionized water (DI), sterile water for injection USP (WFI), 5 mM and 10 mM sodium chloride in water, and 30 mg/ml sodium cromoglycate (cromolyn) in water.
The region between aerosol generation and the Faraday cup was inspected after each extrusion (“run”), and any residue found was wiped clean. This region was all metallic in the system used here and comprised two separable parts, the so-called “clamp”, in which the packet is held and the aerosol is generated, and the so-called “diffuser”, which is positioned immediately downstream from the clamp. This diffuser was removed in some of the Examples herein discussed.
A measure of the net electric charge carried by the bolus was obtained from the numerical integral over time of the electric current signals. […]

[2] = Residue between aerosol generation and Faraday cup, inspected after each extrusion; assay type: physicochemical; conditions: EXAMPLE 1, diffuser on; 30 mg/ml in water; compared with DI water
Source text: The region between aerosol generation and the Faraday cup was inspected after each extrusion (“run”), and any residue found was wiped clean. This region was all metallic in the system used here and comprised two separable parts, the so-called “clamp”, in which the packet is held and the aerosol is generated, and the so-called “diffuser”, which is positioned immediately downstream from the clamp. This diffuser was removed in some of the Examples herein discussed. […] Several runs carried out with a “dummy” packet that contained no liquid (labeled “no article” by the “X” in FIG. 1) gave rise to no measurable levels of charge. […] The difference in residue is another indication of high charging.

[3] = EXAMPLE 2, diffuser not present, solutions in water (5 and 10 mM NaCl; 30 mg/ml cromolyn), compared with WFI, FIG. 2

With `[Cl-].[Na+]` [NaCl, sodium chloride] the net aerosol charge [1, 3] was “much lower charge than water for injection”.

With `O=C(O)c1cc(=O)c2c(OCC(O)COc3cccc4oc(C(=O)O)cc(=O)c34)cccc2o1` [cromolyn, sodium cromoglycate] the net aerosol charge ([1]; EXAMPLE 1, diffuser on, 30 mg/ml in water, compared with DI water, FIG. 1) was “significantly reduced charge level”, the net aerosol charge [1, 3] was “much lower charge than water for injection” and the “residue in the diffuser” value [2] was “a small fraction of the initial packet contents”.
